Test results reported in ChEMBL document CHEMBL4152385, “Synthesis, Receptor Affinity, and Antiallodynic Activity of Spirocyclic σ Receptor Ligands with Exocyclic Amino Moiety” (J Med Chem, 2018).
pKi: −log10 of the molar value. Active and inactive are the calls of the source. No cut-off for these calls is given here.

What was measured:
[1] = target: T1, Sigma non-opioid intracellular receptor 1 (Cavia porcellus, UniProt Q60492); test: Displacement of [3H]-(+)-pentazocine from sigma1 receptor in guinea pig brain cortex membranes incubated for 120 mins by scintillation counting method; assay type: cell membranes
[2] = target: T2, Sigma intracellular receptor 2 (Rattus norvegicus, UniProt Q5U3Y7); test: Displacement of [3H]-di-o-tolylguanidine from sigma2 receptor in rat liver membranes incubated for 120 mins by scintillation counting method; assay type: cell membranes, Membrane
T2 sequence (Q5U3Y7 whole entry): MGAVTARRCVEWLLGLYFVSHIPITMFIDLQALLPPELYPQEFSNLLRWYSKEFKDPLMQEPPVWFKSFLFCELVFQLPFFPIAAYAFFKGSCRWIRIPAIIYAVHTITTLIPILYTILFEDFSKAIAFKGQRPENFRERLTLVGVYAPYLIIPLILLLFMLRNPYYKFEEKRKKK

[3] = Selectivity ratio of Ki for sigma2 receptor in rat liver membranes to Ki for sigma1 receptor in guinea pig brain cortex membranes; assay type: cell membranes
[4] = Stability in pH 7.4 phosphate buffer assessed as parent compound remaining after 24 hrs by HPLC; assay type: physicochemical; conditions: pH 7.4, 24 h
Mus musculus [5] = test: Antiallodynic activity in CD1 mouse model of capsaicin-induced mechanical allodynia assessed as effect on paw withdrawal latency time at 2 to 64 mg/kg, sc administered 30 mins before capsaicin addition and measured at 30 secs intervals; assay type: functional, organism-based
[6] = Displacement of [3H]-(+)-MK-801 from NMDA PCP binding site in pig brain cortex membrane incubated for 120 mins by scintillation counting method; assay type: cell membranes, Sus scrofa
Mus musculus [7] = test: Antiallodynic activity in CD1 mouse model of capsaicin-induced mechanical allodynia assessed as effect on paw withdrawal latency time at 4 to 32 mg/kg, sc administered 5 mins after sigma1 receptor agonist PRE-084 dosing followed by capsaicin addition and measured after 30 mins post compound dose; assay type: functional, organism-based
[8] = target: Glutamate receptor ionotropic, NMDA 2B (Homo sapiens, UniProt Q13224); test: Displacement of [3H]ifenprodil from GluN2B (unknown origin) expressed in mouse L(tk-) cell membranes incubated for 120 mins by scintillation counting method
Mu-type opioid receptor = Mu-type opioid receptor (Cavia porcellus, UniProt P97266); test: Displacement of [3H]DAMGO from MOR in guinea pig brain membranes incubated for 120 mins by scintillation counting method; assay type: cell membranes, Membrane
in vitro = conditions: mouse, liver microsomes
Description: Metabolic stability in mouse liver microsomes assessed as compound remaining at 25 uM after 1 hr in presence of NADPH by LC-MS analysis

[9] = target: Delta-type opioid receptor (Rattus norvegicus, UniProt P33533); test: Displacement of [3H]DPDPE from DOR in rat brain membranes incubated for 120 mins by scintillation counting method; assay type: cell membranes, Membrane
Mus musculus [10] = test: Antiallodynic activity in CD1 mouse model of capsaicin-induced mechanical allodynia assessed as effect on paw withdrawal latency time at 4 to 64 mg/kg, sc administered 30 mins before capsaicin addition and measured at 30 secs intervals; assay type: functional, organism-based
[11] = Stability in pH 2 aqueous HCl solution assessed as parent compound remaining after 24 hrs by HPLC; assay type: physicochemical; conditions: buffer, pH 2, 24 h
Mus musculus [12] = test: Antiallodynic activity in CD1 mouse model of capsaicin-induced mechanical allodynia assessed as effect on paw withdrawal latency time at 32 mg/kg, sc administered 5 mins after sigma1 receptor agonist PRE-084 dosing followed by capsaicin addition and measured after 30 mins post compound dose; assay type: functional, organism-based
[13] = target: T1, Sigma non-opioid intracellular receptor 1
[14] = target: T2, Sigma intracellular receptor 2; test: Displacement of [3H]-DTG from sigma2 receptor in rat liver membranes; assay type: cell membranes, Membrane

T1 sequence (Q60492 whole entry): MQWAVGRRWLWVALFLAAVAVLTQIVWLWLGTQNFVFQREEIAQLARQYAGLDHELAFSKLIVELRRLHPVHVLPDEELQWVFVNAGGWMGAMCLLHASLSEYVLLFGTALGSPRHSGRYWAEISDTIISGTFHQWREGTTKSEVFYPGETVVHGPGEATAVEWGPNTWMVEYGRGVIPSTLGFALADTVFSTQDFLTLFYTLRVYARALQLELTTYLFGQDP
Mu-type opioid receptor, sequence (P97266 whole entry): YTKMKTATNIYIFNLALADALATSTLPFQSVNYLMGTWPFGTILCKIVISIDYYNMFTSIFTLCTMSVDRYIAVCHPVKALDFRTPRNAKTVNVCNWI
Delta-type opioid receptor, sequence (P33533 whole entry): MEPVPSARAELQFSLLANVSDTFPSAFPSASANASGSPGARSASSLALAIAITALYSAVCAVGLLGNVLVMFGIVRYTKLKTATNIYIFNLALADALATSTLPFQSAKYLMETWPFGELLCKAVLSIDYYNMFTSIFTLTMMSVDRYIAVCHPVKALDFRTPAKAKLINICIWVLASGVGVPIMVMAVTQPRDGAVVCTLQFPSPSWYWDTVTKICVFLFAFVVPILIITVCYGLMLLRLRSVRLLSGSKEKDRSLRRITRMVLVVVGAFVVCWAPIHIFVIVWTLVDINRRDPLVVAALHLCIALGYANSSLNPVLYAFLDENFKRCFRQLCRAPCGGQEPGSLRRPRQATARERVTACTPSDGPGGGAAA
Glutamate receptor ionotropic, NMDA 2B, sequence (Q13224 whole entry): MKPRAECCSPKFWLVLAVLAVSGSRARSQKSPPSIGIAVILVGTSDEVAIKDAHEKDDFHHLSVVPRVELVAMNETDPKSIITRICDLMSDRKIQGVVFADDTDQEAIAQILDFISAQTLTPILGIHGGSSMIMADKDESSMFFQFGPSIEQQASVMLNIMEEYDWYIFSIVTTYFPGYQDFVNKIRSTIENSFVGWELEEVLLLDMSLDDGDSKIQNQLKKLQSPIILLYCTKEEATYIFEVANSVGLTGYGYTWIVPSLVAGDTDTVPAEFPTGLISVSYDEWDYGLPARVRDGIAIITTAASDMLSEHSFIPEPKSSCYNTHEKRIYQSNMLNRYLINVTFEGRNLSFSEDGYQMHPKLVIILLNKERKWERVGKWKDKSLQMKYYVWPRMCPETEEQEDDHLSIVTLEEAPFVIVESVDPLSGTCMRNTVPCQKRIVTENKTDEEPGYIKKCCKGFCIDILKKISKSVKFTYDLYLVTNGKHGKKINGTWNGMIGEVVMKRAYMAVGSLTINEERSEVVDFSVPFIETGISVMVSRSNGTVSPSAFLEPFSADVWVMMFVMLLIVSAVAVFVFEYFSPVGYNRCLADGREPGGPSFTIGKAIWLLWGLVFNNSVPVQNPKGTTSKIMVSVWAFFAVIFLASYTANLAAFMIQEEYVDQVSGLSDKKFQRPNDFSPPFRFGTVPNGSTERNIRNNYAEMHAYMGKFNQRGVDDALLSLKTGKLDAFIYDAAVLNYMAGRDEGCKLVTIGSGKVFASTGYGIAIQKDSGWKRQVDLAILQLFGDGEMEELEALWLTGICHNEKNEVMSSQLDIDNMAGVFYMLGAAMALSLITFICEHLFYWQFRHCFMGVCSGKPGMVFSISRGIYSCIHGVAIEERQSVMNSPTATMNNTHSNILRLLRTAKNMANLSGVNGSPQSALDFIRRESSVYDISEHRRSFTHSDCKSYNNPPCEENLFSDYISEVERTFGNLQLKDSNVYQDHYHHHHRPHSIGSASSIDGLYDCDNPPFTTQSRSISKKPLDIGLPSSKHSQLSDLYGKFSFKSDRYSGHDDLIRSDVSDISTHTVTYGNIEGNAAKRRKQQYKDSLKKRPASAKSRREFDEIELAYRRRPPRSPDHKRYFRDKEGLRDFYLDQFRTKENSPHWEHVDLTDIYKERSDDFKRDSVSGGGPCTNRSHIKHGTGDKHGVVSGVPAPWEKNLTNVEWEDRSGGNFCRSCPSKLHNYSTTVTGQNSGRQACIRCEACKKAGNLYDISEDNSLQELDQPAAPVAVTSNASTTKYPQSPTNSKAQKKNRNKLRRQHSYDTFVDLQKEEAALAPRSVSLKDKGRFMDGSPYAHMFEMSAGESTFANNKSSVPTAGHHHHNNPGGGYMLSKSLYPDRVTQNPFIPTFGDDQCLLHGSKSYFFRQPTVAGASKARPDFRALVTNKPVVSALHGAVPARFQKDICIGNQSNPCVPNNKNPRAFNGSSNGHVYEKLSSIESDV

## CO[C@H]1Cc2ccccc2C2(CCC(NCCCc3cn(-c4ccc(F)cc4)c4ccccc34)CC2)O1 (some centres not stated)
[1]
  pKi: 6.20

## CO[C@@H]1Cc2ccccc2C2(CCC(NCc3ccccc3)CC2)O1 (some centres not stated)
[1]
  pKi: 6.27

## CO[C@@H]1Cc2ccccc2C2(CCC(NC3CCc4ccccc4CC3)CC2)O1 (some centres not stated)
[2]
  pKi: 7.31

## FCC[C@H]1Cc2ccccc2C2(CCC(NC3CCc4ccccc4CC3)CC2)O1 (some centres not stated)
[1]
  pKi: 6.70
[2]
  pKi: 6.28

## CO[C@H]1Cc2ccccc2C2(CCC(N3CCN(C4CCCCC4)CC3)CC2)O1 (some centres not stated)
[3]
  Ratio Ki: 50
[1]
  pKi: 8.36
[2]
  pKi: 6.67

## CO[C@@H]1Cc2ccccc2C2(CCC(N3CCN(C4CCCCC4)CC3)CC2)O1 (some centres not stated)
[3]
  Ratio Ki: 10
[1]
  pKi: 8.20
[2]
  pKi: 7.21

## COc1cc2c(cc1OC)CN(C1CCC3(CC1)O[C@H](OC)Cc1ccccc13)CC2 (some centres not stated)
[1]
  pKi: 6.19
[2]
  pKi: 7.24

## CO[C@H]1Cc2ccccc2C2(CCC(NCc3ccccc3)CC2)O1 (some centres not stated)
[1]
  pKi: 6.80

## CO[C@H]1Cc2ccccc2C2(CCC(NCc3ccc(C)cc3C)CC2)O1 (some centres not stated)
[2]
  pKi: 7.27

## COc1cc2c(cc1OC)CN(C1CCC3(CC1)O[C@@H](OC)Cc1ccccc13)CC2 (some centres not stated)
[2]
  pKi: 6.98

## FCC[C@H]1Cc2ccccc2C2(CCC(N3CCN(C4CCCCC4)CC3)CC2)O1 (some centres not stated)
[4]
  Stability: Stable
Mus musculus [5]
  Activity: Active
[6]
  pKi: < 6.00
Mus musculus [7]
  Activity: inactive
[8]
  pKi: 7.51
[1]
  pKi: 7.72
Mu-type opioid receptor
  pKi: 6.36
In vitro
  remaining at 1 h, 25 µM: 69.5%
[9]
  pKi: 6.19
Mus musculus [10]
  Activity: Active
[11]
  Stability: Stable
Mus musculus [12]
  Activity: inactive
[2]
  pKi: 6.36

## Fc1ccc(-n2cc(CCCCN3CCC4(CC3)OCc3ccccc34)c3ccccc32)cc1 [SIRAMESINE]
[1]
  pKi: 7.77
[13]
  pKi: 7.77

## COc1cc2c(cc1OC)CN(C1CCC3(CC1)O[C@H](O)Cc1ccccc13)CC2 (some centres not stated)
[1]
  pKi: 6.23
[2]
  pKi: 7.00

## CN1CCN(CCc2ccc(Cl)c(Cl)c2)CC1
Mus musculus [5]
  Activity: Active
Mus musculus [10]
  Activity: Active

## FCC[C@@H]1Cc2ccccc2C2(CCC(NC3CCc4ccccc4CC3)CC2)O1 (some centres not stated)
[1]
  pKi: 6.18
[2]
  pKi: 6.52

## CCOC(=O)C[C@H]1Cc2ccccc2C2(CCC(NCc3ccc(C)cc3C)CC2)O1 (some centres not stated)
[1]
  pKi: 6.26
[2]
  pKi: 6.80

## COc1cccc2c1CCCC2CCCN1CCN(C2CCCCC2)CC1 (configuration not stated)
[14]
  pKi: 9.17
[2]
  pKi: 9.17

## CCOC(=O)C[C@@H]1Cc2ccccc2C2(CCC(N3CCN(C4CCCCC4)CC3)CC2)O1 (some centres not stated)
[2]
  pKi: 6.45
